These results are taken from US20240270720A1, “INDAZOLE YL BENZIMIDAZOLE DERIVATIVE OR PHARMACEUTICALLY ACCEPTABLE SALT THEREOF, AND USE THEREOF” (INDUSTRY-UNIVERSITY COOPERATION FOUNDATION HANYANG …, priority 2021, published 2024).

Where a chain is given by its changes, count along the chain named. pIC50: −log10 of the molar value. Where two headings read alike, the source gives them in different places.

One data set concerns the target T1, FLT3 wild type (Homo sapiens, UniProt P36888).
T1 construct: purchased Reaction Biology Corp. (Kinase HotSpot service)
T1 sequence (P36888 27-993): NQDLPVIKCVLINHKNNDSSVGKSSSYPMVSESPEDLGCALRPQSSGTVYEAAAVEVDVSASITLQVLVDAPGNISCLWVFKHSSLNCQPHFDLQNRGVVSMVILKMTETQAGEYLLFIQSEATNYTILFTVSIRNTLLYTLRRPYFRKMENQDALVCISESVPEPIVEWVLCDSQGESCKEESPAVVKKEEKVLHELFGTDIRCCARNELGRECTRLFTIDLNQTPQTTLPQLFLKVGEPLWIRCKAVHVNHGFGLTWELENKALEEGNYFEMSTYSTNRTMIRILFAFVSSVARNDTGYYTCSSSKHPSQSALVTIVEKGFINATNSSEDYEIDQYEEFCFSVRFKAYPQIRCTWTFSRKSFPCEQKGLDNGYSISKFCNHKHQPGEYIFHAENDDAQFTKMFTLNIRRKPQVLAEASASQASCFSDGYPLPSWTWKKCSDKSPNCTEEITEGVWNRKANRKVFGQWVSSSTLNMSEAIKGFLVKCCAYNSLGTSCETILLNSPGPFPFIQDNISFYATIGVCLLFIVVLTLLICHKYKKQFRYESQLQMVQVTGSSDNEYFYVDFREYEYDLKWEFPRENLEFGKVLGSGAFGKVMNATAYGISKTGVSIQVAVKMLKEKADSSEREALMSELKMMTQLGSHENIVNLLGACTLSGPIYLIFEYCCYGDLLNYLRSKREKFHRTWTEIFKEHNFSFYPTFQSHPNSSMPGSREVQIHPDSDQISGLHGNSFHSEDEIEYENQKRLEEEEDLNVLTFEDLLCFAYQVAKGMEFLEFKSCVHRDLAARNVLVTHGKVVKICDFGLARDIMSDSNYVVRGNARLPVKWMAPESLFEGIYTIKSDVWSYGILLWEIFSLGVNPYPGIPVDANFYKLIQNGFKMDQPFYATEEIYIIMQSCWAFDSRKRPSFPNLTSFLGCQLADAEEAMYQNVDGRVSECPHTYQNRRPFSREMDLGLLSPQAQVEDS
The data set can be described thus: Kinase HotSpot radiometric kinase assay (Reaction Biology). The format is biochemical. Conditions: Table 1; read-out: FLT3 IC50.

A further data set deals with T2, FLT3 (D835Y) (Homo sapiens, UniProt P36888, D835Y).
T2 sequence (P36888 27-993 D835Y): T1 sequence (P36888 27-993) with D809Y
The data set is described as above.

The mark [1] stands for this setting: read-out: FLT3 (D835Y) IC50, Table 1.

Method for FLT3 (D835Y): (§1) Reaction Biology Corp. Kinase HotSpot SM service (www.reactionbiology.com) was used to determine IC50 values for all compounds and kinase profiles. The analysis protocol was as follows: In a final reaction volume of 25 μL, a peptide substrate, [[sequence]], 5 μM, ATP 10 μM, and FLT3(h) (5 to 10 mU) were incubated with 25 mM Tris pH 7.5, 0.02 mM EGTA, 0.66 mg/mL myelin basic protein, 10 mM Mg acetate and [γ-33P-ATP] (a concentration of approximately 500 cpm/pmol was required for specific activity). The reaction was initiated by adding the Mg-ATP mixture. After incubation at room temperature for 40 minutes, the reaction was stopped by adding 5 μL of a 3% phosphoric acid solution. Thereafter, 10 μL of the reactant was spotted on a P30 filter mat and washed three times for 5 minutes in 75 mM phosphoric acid and once in methanol before drying and scintillation counting.
Method for FLT3 wild type: as §1

As a reminder, the melting point is the temperature, or range, at which the solid turns liquid. The term pIC50 denotes −log10 of the IC50, conventionally taken in molar units. In turn, `CN(C)C1CCN(c2cc(C(=O)Nc3ccc4[nH]c(-c5ccc6cn[nH]c6c5)nc4c3)cc(C(F)(F)F)c2)C1` (centres unmarked) [Compound 8n, N-(2-(1H-indazol-6-yl)-1H-benzo[di]imidazol-5-yl)-3-(3-(dimethylamino)pyrrolidin-1-yl)-5-(trifluoromethyl)benzamide] gave a melting point of 283 to 285 °C. The pIC50 at FLT3 wild type was 6.54.
The corresponding values for `CCN1CCN(Cc2ccc(C(=O)Nc3ccc4[nH]c(-c5ccc6cn[nH]c6c5)nc4c3)cc2C(F)(F)F)CC1` [Compound 8w, N-(2-(1H-indazol-6-yl)-1H-benzo[di]imidazol-5-yl)-4-((4-ethylpiperazin-1-yl)methyl)-3-(trifluoromethyl)benzamide] are 164 to 166 °C and 6.54.
In turn, `Cc1nccn1-c1cc(C(=O)Nc2ccc3[nH]c(-c4ccc5cn[nH]c5c4)nc3c2)cc(C(F)(F)F)c1` [Compound 8c, N-(2-(1H-indazol-6-yl)-1H-benzo[di]imidazol-5-yl)-3-(2-methyl-1H-imidazol-1-yl)-5-(trifluoromethyl)benzamide] yielded a melting point of 251 to 253 °C. In addition, the pIC50 at FLT3 wild type was 6.33.
For `CCN1CCC(Nc2cc(C(=O)Nc3ccc4[nH]c(-c5ccc6cn[nH]c6c5)nc4c3)cc(C(F)(F)F)c2)CC1` [Compound 8t, N-(2-(1H-indazol-6-yl)-1H-benzo[di]imidazol-5-yl)-3-((1-ethylpiperidin-4-yl)amino)-5-(trifluoromethyl)benzamide], the melting point lay within 166 to 168 °C. The pIC50 at FLT3 (D835Y) (setting [1]) was 7.06. Moreover, at FLT3 wild type, the pIC50 was 6.54.
`CC(C)(C)c1cc(C(=O)Nc2ccc3[nH]c(-c4ccc5cn[nH]c5c4)nc3c2)no1` [Compound 8h, N-(2-(1H-indazol-6-yl)-1H-benzo[di]imidazol-5-yl)-5-(tert-butyl)isoxazole-3-carboxamide] came in with a melting point of 147 to 149 °C. In addition, the pIC50 at FLT3 (D835Y) is 7.49. For the same compound, on FLT3 wild type, the pIC50 is about 6.15.
Consider `O=C(Nc1ccc2[nH]c(-c3ccc4cn[nH]c4c3)nc2c1)c1cc(CN2CCN(C3CC3)CC2)cc(C(F)(F)F)c1` [Compound 8q, N-(2-(1H-indazol-6-yl)-1H-benzo[di]imidazol-5-yl)-3-((4-cyclopropylpiperazin-1-yl)methyl)-5-(trifluoromethyl)benzamide], for which the melting point lay in the range of 150 to 152 °C. Further, on FLT3 wild type, the pIC50 was 6.28.
As for `Cc1cn(-c2cc(C(=O)Nc3ccc4[nH]c(-c5ccc6cn[nH]c6c5)nc4c3)cc(C(F)(F)F)c2)cn1` [Compound 8b, N-(2-(1H-indazol-6-yl)-1H-benzo[di]imidazol-5-yl)-3-(4-methyl-1H-imidazol-1-yl)-5-(trifluoromethyl)benzamide], the melting point lay within 239 to 241 °C. In addition, the pIC50 at FLT3 (D835Y) (setting [1]) is 6.96. The pIC50 at FLT3 wild type was 6.19.
Consider `CN1CCN(c2ccc(C(=O)Nc3ccc4[nH]c(-c5ccc6cn[nH]c6c5)nc4c3)cc2C(F)(F)F)CC1` [Compound 8e, N-(2-(1H-indazol-6-yl)-1H-benzo[di]imidazol-5-yl)-4-(4-methylpiperazin-1-yl)-3-(trifluoromethyl)benzamide], for which the melting point lay in the range of 160 to 161 °C. Further, the pIC50 on FLT3 (D835Y) (setting [1]) is 7.36. Besides, the pIC50 at FLT3 wild type was 6.81.
`O=C(Nc1ccc2[nH]c(-c3ccc4cn[nH]c4c3)nc2c1)c1cc(N2CCN(C3CC3)CC2)cc(C(F)(F)F)c1` [Compound 8p, N-(2-(1H-indazol-6-yl)-1H-benzo[di]imidazol-5-yl)-3-(4-cyclopropylpiperazin-1-yl)-5-(trifluoromethyl)benzamide] came in with a melting point of 154 to 156 °C. For the same compound, the pIC50 on FLT3 (D835Y) (setting [1]) was 6.88. Further, the pIC50 at FLT3 wild type is 6.39.
`CCN1CCN(Cc2cc(C(=O)Nc3ccc4[nH]c(-c5ccc6cn[nH]c6c5)nc4c3)cc(C(F)(F)F)c2)CC1(C)C` [Compound 8y, N-(2-(1H-indazol-6-yl)-1H-benzo[di]imidazol-5-yl)-3-((4-ethyl-3,3-dimethylpiperazine-1-yl)methyl)-5-(trifluoromethyl)benzamide] had a melting point of 255 to 257 °C. Also, the pIC50 at FLT3 (D835Y) (setting [1]) was 7.38. For the same compound, the pIC50 on FLT3 wild type is 6.84.
The compound `CCN(CC)C1CCN(c2cc(C(=O)Nc3ccc4[nH]c(-c5ccc6cn[nH]c6c5)nc4c3)cc(C(F)(F)F)c2)C1` (centres unmarked) [Compound 8o, N-(2-(1H-indazol-6-yl)-1H-benzo[di]imidazol-5-yl)-3-(3-(diethylamino)pyrrolidin-1-yl)-5-(trifluoromethyl)benzamide] had a melting point of 221 to 223 °C. In addition, the pIC50 at FLT3 (D835Y) (setting [1]) is 6.92. In addition, at FLT3 wild type, the pIC50 was 6.08.
For `CN1CCC[C@@H](Nc2cc(C(=O)Nc3ccc4[nH]c(-c5ccc6cn[nH]c6c5)nc4c3)cc(C(F)(F)F)c2)C1` [Compound 8v, N-(2-(1H-indazol-6-yl)-1H-benzo[di]imidazol-5-yl)-3-((1-methylpiperidin-3-yl)amino)-5-(trifluoromethyl)benzamide], the melting point lay within 213 to 214 °C.
For `CN1CCC(Nc2cc(C(=O)Nc3ccc4[nH]c(-c5ccc6cn[nH]c6c5)nc4c3)cc(C(F)(F)F)c2)CC1` [Compound 8s, N-(2-(1H-indazol-6-yl)-1H-benzo[di]imidazol-5-yl)-3-((1-methylpiperidin-4-yl)amino)-5-(trifluoromethyl)benzamide], the melting point is 175 to 177 °C.
Compound `COc1ccc(/C=C/C(=O)Nc2ccc3[nH]c(-c4ccc5cn[nH]c5c4)nc3c2)cc1` [Compound 8k, (E)-N-(2-(1H-indazol-6-yl)-1H-benzo[di]imidazol-5-yl)-3-(4-methoxyphenyl)acrylamide] had a melting point of 206 to 208 °C. For the same compound, the pIC50 at FLT3 wild type was 6.12.
Compound `CC(C)(C)c1cc(NC(=O)Nc2ccc3[nH]c(-c4ccc5cn[nH]c5c4)nc3c2)no1` [Compound 8l, 1-(2-(1H-indazol-6-yl)-1H-benzo[di]imidazol-5-yl)-3-(5-(tert-butyl)isoxazol-3-yl)urea] displayed a melting point of 184 to 186 °C. Further, on FLT3 wild type, the pIC50 is 5.93.
`O=C(Nc1ccc2[nH]c(-c3ccc4cn[nH]c4c3)nc2c1)c1cnn(-c2ccccc2)c1C(F)(F)F` [Compound 8g, N-(2-(1H-indazol-6-yl)-1H-benzo[di]imidazol-5-yl)-1-phenyl-5-(trifluoromethyl)-1H-pyrazole-4-carboxamide] came in with a melting point of 258 to 260 °C. Also, the pIC50 on FLT3 wild type was 5.96.
For `CN1CCC(Oc2cc(C(=O)Nc3ccc4[nH]c(-c5ccc6cn[nH]c6c5)nc4c3)cc(C(F)(F)F)c2)CC1` [Compound 8u, N-(2-(1H-indazol-6-yl)-1H-benzo[di]imidazol-5-yl)-3-((1-methylpiperidin-4-yl)oxy)-5-(trifluoromethyl)benzamide], the melting point is 293 to 295 °C. Also, on FLT3 (D835Y) (setting [1]), the pIC50 is 7.26.
`CN1CCC(Oc2ccc(C(=O)Nc3ccc4[nH]c(-c5ccc6cn[nH]c6c5)nc4c3)cc2C(F)(F)F)CC1` [Compound 8x, N-(2-(1H-indazol-6-yl)-1H-benzo[di]imidazol-5-yl)-4-((1-methylpiperidin-4-yl)oxy)-3-(trifluoromethyl)benzamide] returned a melting point of 293 to 295 °C. Further, at FLT3 wild type, the pIC50 was 6.13.
